# Laboratory results taken from publication PMC4300089, “Structure-Guided Design of Selective Epac1 and Epac2 Agonists” (PLoS Biology, 2015).
# Assays:
# Epac2^Δ280,K450A = target: T1, Epac2^Δ280,K450A (Mus musculus, UniProt Q9EQZ6, K468A); test: Epac activation assay, Epac2 K450A mutant; type: biochemical
# T1 construct: made in house
# T1 sequence (Q9EQZ6 281-993 isoform Q9EQZ6-3 K450A): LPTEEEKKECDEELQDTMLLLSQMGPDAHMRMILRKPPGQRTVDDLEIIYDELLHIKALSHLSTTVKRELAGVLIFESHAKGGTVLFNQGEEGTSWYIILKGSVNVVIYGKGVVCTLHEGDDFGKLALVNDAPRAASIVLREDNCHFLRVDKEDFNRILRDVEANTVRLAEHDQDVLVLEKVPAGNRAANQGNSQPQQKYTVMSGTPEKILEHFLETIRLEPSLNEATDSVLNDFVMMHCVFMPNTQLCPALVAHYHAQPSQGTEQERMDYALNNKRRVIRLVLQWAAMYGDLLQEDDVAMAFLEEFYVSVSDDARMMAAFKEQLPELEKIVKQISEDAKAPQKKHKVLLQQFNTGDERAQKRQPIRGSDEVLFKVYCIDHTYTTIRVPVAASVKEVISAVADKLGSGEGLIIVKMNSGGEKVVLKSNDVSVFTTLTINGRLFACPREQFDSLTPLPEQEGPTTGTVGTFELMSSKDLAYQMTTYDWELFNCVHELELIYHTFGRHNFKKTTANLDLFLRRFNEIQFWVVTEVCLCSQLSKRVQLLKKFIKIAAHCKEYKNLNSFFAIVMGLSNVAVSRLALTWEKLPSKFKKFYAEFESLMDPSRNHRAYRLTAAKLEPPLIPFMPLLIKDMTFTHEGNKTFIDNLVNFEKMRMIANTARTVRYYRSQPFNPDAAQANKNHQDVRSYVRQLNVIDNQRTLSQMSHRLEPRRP
# Description: (§1) Murine Epac2 was used as all previous structural studies were performed with it.
# (§2) The activity of Epac was determined by a fluorescence assay. […] The fluorescence intensity of Rap1B•mGDP is approximately twice that of free mGDP, and thus, nucleotide exchange can be observed as a decay in fluorescence upon the addition of excess unlabeled GDP.
# Epac2^fl = target: T2, Epac2^fl (Mus musculus, UniProt Q9EQZ6); test: Epac activation assay, full length Epac2; type: biochemical; parameters: made in house
# T2 sequence (Q9EQZ6 1-993 isoform Q9EQZ6-3): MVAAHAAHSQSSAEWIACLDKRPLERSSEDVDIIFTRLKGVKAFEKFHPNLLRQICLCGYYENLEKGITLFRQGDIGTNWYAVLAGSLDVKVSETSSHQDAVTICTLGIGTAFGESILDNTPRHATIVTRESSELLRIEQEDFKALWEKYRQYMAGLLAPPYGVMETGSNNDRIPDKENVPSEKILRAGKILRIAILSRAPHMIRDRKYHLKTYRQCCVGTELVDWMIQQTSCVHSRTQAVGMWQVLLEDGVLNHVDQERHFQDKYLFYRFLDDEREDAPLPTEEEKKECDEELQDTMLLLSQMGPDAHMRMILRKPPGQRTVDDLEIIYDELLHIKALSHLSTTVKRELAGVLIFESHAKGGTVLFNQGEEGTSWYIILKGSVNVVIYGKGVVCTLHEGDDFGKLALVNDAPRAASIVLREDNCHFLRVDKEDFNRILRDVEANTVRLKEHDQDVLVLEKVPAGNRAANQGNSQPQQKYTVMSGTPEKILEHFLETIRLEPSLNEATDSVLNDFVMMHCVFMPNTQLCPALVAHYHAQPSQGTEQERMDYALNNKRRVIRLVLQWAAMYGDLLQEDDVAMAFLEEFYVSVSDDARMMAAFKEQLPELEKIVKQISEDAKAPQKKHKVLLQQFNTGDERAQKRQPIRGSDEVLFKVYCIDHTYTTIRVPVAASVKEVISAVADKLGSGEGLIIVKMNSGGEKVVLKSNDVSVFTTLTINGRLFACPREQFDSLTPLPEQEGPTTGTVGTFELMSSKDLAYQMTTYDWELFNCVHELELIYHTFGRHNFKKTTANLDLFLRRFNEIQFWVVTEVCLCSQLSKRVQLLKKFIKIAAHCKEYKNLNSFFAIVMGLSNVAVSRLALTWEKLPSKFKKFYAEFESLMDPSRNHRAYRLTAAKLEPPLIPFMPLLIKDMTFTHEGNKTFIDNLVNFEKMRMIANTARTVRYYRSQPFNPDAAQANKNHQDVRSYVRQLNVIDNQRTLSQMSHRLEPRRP
# Description: as §1, §2
compound,measurement,setting,value
"Nc1ncnc2c1ncn2C1OC2COP(O)(=S)OC2C1O (stereo not shown) [S-000, Sp-cAMPS]",kobs,"Epac2^Δ280,K450A; 0.01 μM compound",2.9e-05 s⁻¹
same,kobs,"Epac2^Δ280,K450A; 0.03 μM compound",3.7e-05 s⁻¹
same,kobs,"Epac2^Δ280,K450A; 0.05 μM compound",4.5e-05 s⁻¹
same,kobs,"Epac2^Δ280,K450A; 0.08 μM compound",5.2e-05 s⁻¹
same,kobs,"Epac2^Δ280,K450A; 0.2 μM compound",9.9e-05 s⁻¹
same,kobs,"Epac2^Δ280,K450A; 0.3 μM compound",0.000114 s⁻¹
same,kobs,"Epac2^Δ280,K450A; 0.5 μM compound",0.000137 s⁻¹
same,kobs,"Epac2^Δ280,K450A; 0.6 μM compound",0.000137 s⁻¹
same,kobs,"Epac2^Δ280,K450A; 0.7 μM compound",0.000253 s⁻¹
same,kobs,"Epac2^Δ280,K450A; 0.8 μM compound",0.000277 s⁻¹
same,kobs,"Epac2^Δ280,K450A; 1 μM compound",0.000309 s⁻¹
same,kobs,"Epac2^Δ280,K450A; 2 μM compound",0.000364 s⁻¹
same,kobs,"Epac2^Δ280,K450A; 3 μM compound",0.00043 s⁻¹
same,kobs,"Epac2^Δ280,K450A; 4 μM compound",0.000497 s⁻¹
same,kobs,"Epac2^Δ280,K450A; 5 μM compound",0.000529 s⁻¹
same,kobs,"Epac2^Δ280,K450A; 6 μM compound",0.000661 s⁻¹
same,kobs,"Epac2^Δ280,K450A; 7 μM compound",0.000655 s⁻¹
same,kobs,"Epac2^Δ280,K450A; 8 μM compound",0.000698 s⁻¹
same,kobs,"Epac2^Δ280,K450A; 10 μM compound",0.000703 s⁻¹
same,kobs,"Epac2^Δ280,K450A; 20 μM compound",0.000752 s⁻¹
same,kobs,"Epac2^Δ280,K450A; 30 μM compound",0.000754 s⁻¹
same,kobs,"Epac2^Δ280,K450A; 40 μM compound",0.000809 s⁻¹
same,kobs,"Epac2^Δ280,K450A; 50 μM compound",0.000778 s⁻¹
same,kobs,"Epac2^Δ280,K450A; 60 μM compound",0.000824 s⁻¹
same,kobs,"Epac2^Δ280,K450A; 70 μM compound",0.000828 s⁻¹
same,kobs,"Epac2^Δ280,K450A; 80 μM compound",0.000833 s⁻¹
same,kobs,"Epac2^Δ280,K450A; 100 μM compound",0.000821 s⁻¹
"Cc1ccc(CSc2nc3c(N)ncnc3n2[C@@H]2O[C@@H]3CO[P@](O)(=S)O[C@H]3[C@H]2O)cc1 [S-230, Sp-8-pMeBnT-cAMPS]",kobs,Epac2^fl; 0.2 μM compound,2.5e-05 s⁻¹
same,kobs,Epac2^fl; 0.3 μM compound,2.9e-05 s⁻¹
same,kobs,Epac2^fl; 0.4 μM compound,3.1e-05 s⁻¹
same,kobs,Epac2^fl; 0.5 μM compound,3.3e-05 s⁻¹
same,kobs,Epac2^fl; 0.6 μM compound,3.6e-05 s⁻¹
same,kobs,Epac2^fl; 0.7 μM compound,4e-05 s⁻¹
same,kobs,Epac2^fl; 0.8 μM compound,4.1e-05 s⁻¹
same,kobs,Epac2^fl; 1 μM compound,4.7e-05 s⁻¹
same,kobs,Epac2^fl; 2 μM compound,8.9e-05 s⁻¹
same,kobs,Epac2^fl; 3 μM compound,0.000128 s⁻¹
same,kobs,Epac2^fl; 4 μM compound,0.000139 s⁻¹
same,kobs,Epac2^fl; 5 μM compound,0.000145 s⁻¹
same,kobs,Epac2^fl; 6 μM compound,0.000194 s⁻¹
same,kobs,Epac2^fl; 7 μM compound,0.000209 s⁻¹
same,kobs,Epac2^fl; 8 μM compound,0.000213 s⁻¹
same,kobs,Epac2^fl; 10 μM compound,0.000238 s⁻¹
same,kobs,Epac2^fl; 20 μM compound,0.000358 s⁻¹
same,kobs,Epac2^fl; 30 μM compound,0.000429 s⁻¹
same,kobs,Epac2^fl; 40 μM compound,0.000467 s⁻¹
same,kobs,Epac2^fl; 50 μM compound,0.000491 s⁻¹
same,kobs,Epac2^fl; 60 μM compound,0.000519 s⁻¹
same,kobs,Epac2^fl; 70 μM compound,0.00055 s⁻¹
same,kobs,Epac2^fl; 80 μM compound,0.000558 s⁻¹
same,kobs,Epac2^fl; 100 μM compound,0.000582 s⁻¹
same,kobs,Epac2^fl; 200 μM compound,0.000643 s⁻¹
same,kobs,Epac2^fl; 400 μM compound,0.00061 s⁻¹
same,kobs,Epac2^fl; 600 μM compound,0.000556 s⁻¹
same,kobs,Epac2^fl; 800 μM compound,0.000527 s⁻¹
